Experimental data published in the NIST ThermoML archive (doi:10.1021/je5009679).
Numbers after ± are expanded uncertainties.

Conditions: Liquid; for viscosity: Concentric cylinders viscometry

Q: What does the source list for `CCOP(=O)([O-])OCC.CCn1cc[n+](C)c1` [1-ethyl-3-methylimidazolium diethyl phosphate]?
A: viscosity (293.15 K, 101.33 kPa): 664.7 ± 38 mPa·s; mass density (293.15 K, 101.33 kPa, Vibrating tube method): 1148.2 ± 1.1 kg/m3; viscosity (303.15 K, 101.33 kPa): 317.3 ± 16 mPa·s; mass density (303.15 K, 101.33 kPa, Vibrating tube method): 1141.2 ± 1.1 kg/m3; mass density (311.4 K, 10000 kPa, Bellows volumetry): 1140.5 ± 1.4 kg/m3; mass density (311.4 K, 20000 kPa, Bellows volumetry): 1145.4 ± 1.4 kg/m3; mass density (311.4 K, 30000 kPa, Bellows volumetry): 1150.1 ± 1.4 kg/m3; mass density (311.4 K, 40000 kPa, Bellows volumetry): 1154.6 ± 1.4 kg/m3; mass density (311.4 K, 50000 kPa, Bellows volumetry): 1158.9 ± 1.4 kg/m3; mass density (311.4 K, 60000 kPa, Bellows volumetry): 1163 ± 1.4 kg/m3; mass density (311.4 K, 70000 kPa, Bellows volumetry): 1167 ± 1.4 kg/m3; mass density (311.4 K, 80000 kPa, Bellows volumetry): 1170.9 ± 1.4 kg/m3; mass density (311.4 K, 90000 kPa, Bellows volumetry): 1174.6 ± 1.4 kg/m3; mass density (311.4 K, 100000 kPa, Bellows volumetry): 1178.3 ± 1.4 kg/m3; mass density (311.4 K, 110000 kPa, Bellows volumetry): 1181.8 ± 1.4 kg/m3; mass density (311.4 K, 120000 kPa, Bellows volumetry): 1185.2 ± 1.4 kg/m3; mass density (311.4 K, 130000 kPa, Bellows volumetry): 1188.6 ± 1.4 kg/m3; mass density (311.4 K, 140000 kPa, Bellows volumetry): 1191.8 ± 1.4 kg/m3; mass density (311.4 K, 150000 kPa, Bellows volumetry): 1195.2 ± 1.4 kg/m3; mass density (311.4 K, 160000 kPa, Bellows volumetry): 1198.2 ± 1.4 kg/m3; mass density (311.4 K, 170000 kPa, Bellows volumetry): 1201.4 ± 1.4 kg/m3; mass density (311.4 K, 180000 kPa, Bellows volumetry): 1204.4 ± 1.4 kg/m3; mass density (311.4 K, 190000 kPa, Bellows volumetry): 1207.3 ± 1.4 kg/m3; mass density (311.4 K, 200000 kPa, Bellows volumetry): 1210.3 ± 1.4 kg/m3; viscosity (313.15 K, 101.33 kPa): 173.9 ± 8.6 mPa·s; mass density (313.15 K, 101.33 kPa, Vibrating tube method): 1134.4 ± 1 kg/m3; viscosity (323.15 K, 101.33 kPa): 103.8 ± 5 mPa·s; mass density (323.15 K, 101.33 kPa, Vibrating tube method): 1127.8 ± 1 kg/m3; mass density (331.3 K, 10000 kPa, Bellows volumetry): 1127.5 ± 1.4 kg/m3; mass density (331.3 K, 20000 kPa, Bellows volumetry): 1132.6 ± 1.4 kg/m3; mass density (331.3 K, 30000 kPa, Bellows volumetry): 1137.6 ± 1.4 kg/m3; mass density (331.3 K, 40000 kPa, Bellows volumetry): 1142.3 ± 1.4 kg/m3; mass density (331.3 K, 50000 kPa, Bellows volumetry): 1146.8 ± 1.4 kg/m3; mass density (331.3 K, 60000 kPa, Bellows volumetry): 1151.2 ± 1.4 kg/m3; mass density (331.3 K, 70000 kPa, Bellows volumetry): 1155.3 ± 1.4 kg/m3; mass density (331.3 K, 80000 kPa, Bellows volumetry): 1159.4 ± 1.4 kg/m3; mass density (331.3 K, 90000 kPa, Bellows volumetry): 1163.2 ± 1.4 kg/m3; mass density (331.3 K, 100000 kPa, Bellows volumetry): 1167.1 ± 1.4 kg/m3; mass density (331.3 K, 110000 kPa, Bellows volumetry): 1170.7 ± 1.4 kg/m3; mass density (331.3 K, 120000 kPa, Bellows volumetry): 1174.4 ± 1.4 kg/m3; mass density (331.3 K, 130000 kPa, Bellows volumetry): 1177.8 ± 1.4 kg/m3; mass density (331.3 K, 140000 kPa, Bellows volumetry): 1181.3 ± 1.4 kg/m3; mass density (331.3 K, 150000 kPa, Bellows volumetry): 1184.8 ± 1.4 kg/m3; mass density (331.3 K, 160000 kPa, Bellows volumetry): 1187.9 ± 1.4 kg/m3; mass density (331.3 K, 170000 kPa, Bellows volumetry): 1191 ± 1.4 kg/m3; mass density (331.3 K, 180000 kPa, Bellows volumetry): 1194.1 ± 1.4 kg/m3; mass density (331.3 K, 190000 kPa, Bellows volumetry): 1197.3 ± 1.4 kg/m3; mass density (331.3 K, 200000 kPa, Bellows volumetry): 1200.2 ± 1.4 kg/m3; viscosity (333.15 K, 101.33 kPa): 66.37 ± 3.1 mPa·s; mass density (333.15 K, 101.33 kPa, Vibrating tube method): 1121.2 ± 1 kg/m3; viscosity (343.15 K, 101.33 kPa): 44.92 ± 2.1 mPa·s; mass density (343.15 K, 101.33 kPa, Vibrating tube method): 1114.6 ± 1 kg/m3; mass density (351.4 K, 10000 kPa, Bellows volumetry): 1114.6 ± 1.4 kg/m3; mass density (351.4 K, 20000 kPa, Bellows volumetry): 1120 ± 1.4 kg/m3; mass density (351.4 K, 30000 kPa, Bellows volumetry): 1125.2 ± 1.4 kg/m3; mass density (351.4 K, 40000 kPa, Bellows volumetry): 1130.2 ± 1.4 kg/m3; mass density (351.4 K, 50000 kPa, Bellows volumetry): 1134.9 ± 1.4 kg/m3; mass density (351.4 K, 60000 kPa, Bellows volumetry): 1139.5 ± 1.4 kg/m3; mass density (351.4 K, 70000 kPa, Bellows volumetry): 1144 ± 1.4 kg/m3; mass density (351.4 K, 80000 kPa, Bellows volumetry): 1148.1 ± 1.4 kg/m3; mass density (351.4 K, 90000 kPa, Bellows volumetry): 1152.2 ± 1.4 kg/m3; mass density (351.4 K, 100000 kPa, Bellows volumetry): 1156.1 ± 1.4 kg/m3; mass density (351.4 K, 110000 kPa, Bellows volumetry): 1159.9 ± 1.4 kg/m3; mass density (351.4 K, 120000 kPa, Bellows volumetry): 1163.6 ± 1.4 kg/m3; mass density (351.4 K, 130000 kPa, Bellows volumetry): 1167.2 ± 1.4 kg/m3; mass density (351.4 K, 140000 kPa, Bellows volumetry): 1170.7 ± 1.4 kg/m3; mass density (351.4 K, 150000 kPa, Bellows volumetry): 1174.2 ± 1.4 kg/m3; mass density (351.4 K, 160000 kPa, Bellows volumetry): 1177.5 ± 1.4 kg/m3; mass density (351.4 K, 170000 kPa, Bellows volumetry): 1180.8 ± 1.4 kg/m3; mass density (351.4 K, 180000 kPa, Bellows volumetry): 1184 ± 1.4 kg/m3; mass density (351.4 K, 190000 kPa, Bellows volumetry): 1187.1 ± 1.4 kg/m3; mass density (351.4 K, 200000 kPa, Bellows volumetry): 1190.3 ± 1.4 kg/m3; viscosity (353.15 K, 101.33 kPa): 31.86 ± 1.5 mPa·s; mass density (353.15 K, 101.33 kPa, Vibrating tube method): 1108 ± 1 kg/m3; viscosity (363.15 K, 101.33 kPa): 23.5 ± 1.1 mPa·s; mass density (363.15 K, 101.33 kPa, Vibrating tube method): 1101.5 ± 1 kg/m3; mass density (371.6 K, 10000 kPa, Bellows volumetry): 1102 ± 1.4 kg/m3; mass density (371.6 K, 20000 kPa, Bellows volumetry): 1107.7 ± 1.4 kg/m3; mass density (371.6 K, 30000 kPa, Bellows volumetry): 1113.3 ± 1.4 kg/m3; mass density (371.6 K, 40000 kPa, Bellows volumetry): 1118.5 ± 1.4 kg/m3; mass density (371.6 K, 50000 kPa, Bellows volumetry): 1123.4 ± 1.4 kg/m3; mass density (371.6 K, 60000 kPa, Bellows volumetry): 1128.2 ± 1.4 kg/m3; mass density (371.6 K, 70000 kPa, Bellows volumetry): 1132.7 ± 1.4 kg/m3; mass density (371.6 K, 80000 kPa, Bellows volumetry): 1137.2 ± 1.4 kg/m3; mass density (371.6 K, 90000 kPa, Bellows volumetry): 1141.3 ± 1.4 kg/m3; mass density (371.6 K, 100000 kPa, Bellows volumetry): 1145.5 ± 1.4 kg/m3; mass density (371.6 K, 110000 kPa, Bellows volumetry): 1149.4 ± 1.4 kg/m3; mass density (371.6 K, 120000 kPa, Bellows volumetry): 1153.2 ± 1.4 kg/m3; mass density (371.6 K, 130000 kPa, Bellows volumetry): 1157 ± 1.4 kg/m3; mass density (371.6 K, 140000 kPa, Bellows volumetry): 1160.6 ± 1.4 kg/m3; mass density (371.6 K, 150000 kPa, Bellows volumetry): 1164.2 ± 1.4 kg/m3; mass density (371.6 K, 160000 kPa, Bellows volumetry): 1167.7 ± 1.4 kg/m3; mass density (371.6 K, 170000 kPa, Bellows volumetry): 1171 ± 1.4 kg/m3; mass density (371.6 K, 180000 kPa, Bellows volumetry): 1174.3 ± 1.4 kg/m3; mass density (371.6 K, 190000 kPa, Bellows volumetry): 1177.5 ± 1.4 kg/m3; mass density (371.6 K, 200000 kPa, Bellows volumetry): 1180.8 ± 1.4 kg/m3; viscosity (373.15 K, 101.33 kPa): 17.92 ± 0.84 mPa·s; mass density (373.15 K, 101.33 kPa, Vibrating tube method): 1094.9 ± 1 kg/m3; mass density (391.6 K, 10000 kPa, Bellows volumetry): 1089.8 ± 1.4 kg/m3; mass density (391.6 K, 20000 kPa, Bellows volumetry): 1095.6 ± 1.4 kg/m3; mass density (391.6 K, 30000 kPa, Bellows volumetry): 1101.5 ± 1.4 kg/m3; mass density (391.6 K, 40000 kPa, Bellows volumetry): 1107 ± 1.4 kg/m3; mass density (391.6 K, 50000 kPa, Bellows volumetry): 1112.3 ± 1.4 kg/m3; mass density (391.6 K, 60000 kPa, Bellows volumetry): 1117.2 ± 1.4 kg/m3; mass density (391.6 K, 70000 kPa, Bellows volumetry): 1122 ± 1.4 kg/m3; mass density (391.6 K, 80000 kPa, Bellows volumetry): 1126.6 ± 1.4 kg/m3; mass density (391.6 K, 90000 kPa, Bellows volumetry): 1131 ± 1.4 kg/m3; mass density (391.6 K, 100000 kPa, Bellows volumetry): 1135.2 ± 1.4 kg/m3; mass density (391.6 K, 110000 kPa, Bellows volumetry): 1139.4 ± 1.4 kg/m3; mass density (391.6 K, 120000 kPa, Bellows volumetry): 1143.4 ± 1.4 kg/m3; mass density (391.6 K, 130000 kPa, Bellows volumetry): 1147.1 ± 1.4 kg/m3; mass density (391.6 K, 140000 kPa, Bellows volumetry): 1151 ± 1.4 kg/m3; mass density (391.6 K, 150000 kPa, Bellows volumetry): 1154.6 ± 1.4 kg/m3; mass density (391.6 K, 160000 kPa, Bellows volumetry): 1158.1 ± 1.4 kg/m3; mass density (391.6 K, 170000 kPa, Bellows volumetry): 1161.5 ± 1.4 kg/m3; mass density (391.6 K, 180000 kPa, Bellows volumetry): 1165 ± 1.4 kg/m3; mass density (391.6 K, 190000 kPa, Bellows volumetry): 1168.2 ± 1.4 kg/m3; mass density (391.6 K, 200000 kPa, Bellows volumetry): 1171.5 ± 1.4 kg/m3; mass density (411.7 K, 10000 kPa, Bellows volumetry): 1077.9 ± 1.4 kg/m3; mass density (411.7 K, 20000 kPa, Bellows volumetry): 1084.3 ± 1.4 kg/m3; mass density (411.7 K, 30000 kPa, Bellows volumetry): 1090.4 ± 1.4 kg/m3; mass density (411.7 K, 40000 kPa, Bellows volumetry): 1096.2 ± 1.4 kg/m3; mass density (411.7 K, 50000 kPa, Bellows volumetry): 1101.7 ± 1.4 kg/m3; mass density (411.7 K, 60000 kPa, Bellows volumetry): 1106.9 ± 1.4 kg/m3; mass density (411.7 K, 70000 kPa, Bellows volumetry): 1111.9 ± 1.4 kg/m3; mass density (411.7 K, 80000 kPa, Bellows volumetry): 1116.7 ± 1.4 kg/m3; mass density (411.7 K, 90000 kPa, Bellows volumetry): 1120.6 ± 1.4 kg/m3; mass density (411.7 K, 100000 kPa, Bellows volumetry): 1125.1 ± 1.4 kg/m3; mass density (411.7 K, 110000 kPa, Bellows volumetry): 1129.3 ± 1.4 kg/m3; mass density (411.7 K, 120000 kPa, Bellows volumetry): 1133.4 ± 1.4 kg/m3; mass density (411.7 K, 130000 kPa, Bellows volumetry): 1137.4 ± 1.4 kg/m3; mass density (411.7 K, 140000 kPa, Bellows volumetry): 1141.2 ± 1.4 kg/m3; mass density (411.7 K, 150000 kPa, Bellows volumetry): 1145 ± 1.4 kg/m3; mass density (411.7 K, 160000 kPa, Bellows volumetry): 1148.7 ± 1.4 kg/m3; mass density (411.7 K, 170000 kPa, Bellows volumetry): 1152.3 ± 1.4 kg/m3; mass density (411.7 K, 180000 kPa, Bellows volumetry): 1155.8 ± 1.4 kg/m3; mass density (411.7 K, 190000 kPa, Bellows volumetry): 1159.2 ± 1.4 kg/m3; mass density (411.7 K, 200000 kPa, Bellows volumetry): 1162.6 ± 1.4 kg/m3
